Assay: Inhibition of 10 uM ADP-induced human gel filtered platelet aggregation with 0.1 mg/mL human fibrinogen

Row | IC50 | Compound
1 | 0.33 mM | O=C(O)CCNC(=O)c1cccc(C(=O)NCC2CCNCC2)c1 [3-{3-[(Piperidin-4-ylmethyl)-carbamoyl]-benzoylamino}-propionic acid]
2 | 0.025 mM | O=C(O)CCNC(=O)c1ccc2c(c1)C(=O)N(CCC1CCNCC1)C2 [3-{[3-Oxo-2-(2-piperidin-4-yl-ethyl)-2,3-dihydro-1H-isoindole-5-carbonyl]-amino}-propionic acid(L-709780)]
3 | 10 mM | O=C(O)CCN1Cc2ccc(C(=O)NCCC3CCNCC3)cc2C1=O [3-[1-Oxo-6-(2-piperidin-4-yl-ethylcarbamoyl)-1,3-dihydro-isoindol-2-yl]-propionic acid]
4 | 2.3 mM | O=C(O)CCNC(=O)c1ccc2c(c1)C(=O)C(CCC1CCNCC1)C2 (centres undefined) [3-{[3-Oxo-2-(2-piperidin-4-yl-ethyl)-indane-5-carbonyl]-amino}-propionic acid]
